The results in this text go back to patent publication US20260199481A1, “PROTEIN DEGRADATION TARGETING CHIMERA COMPOUND, COMPOSITION THEREOF, AND USE THEREOF” (TSINGHUA UNIVERSITY, priority 2022, published 2026).

One assay addresses T1, BRD4 (Homo sapiens, UniProt O60885).
T1 construct: endogenous in cells; host or cells: MCF-7
The experiment in a line: Protein degradation activity, Western blotting of BRD4 in MCF-7 cells. It is filed as cell-based. As for the experimental part:
Cell treatment: MCF-7 cells in the logarithmic growth phase were taken for the experiment. Cells were inoculated in six-well plates at a density of 5.0×10^5 cells/per well and incubated at 37° C. for 24 hours. […]
Whole cell protein extraction: After completion of drug treatment, the culture medium was discarded, and the cells were washed 3 times with pre-cooled PBS. Cells were scraped off using a cell scraper, and the resulting solution was carefully aspirated and centrifuged at 300 g for 5 min at 4° C. to obtain cells, which were washed with PBS, resuspended, and centrifuged under the same conditions.
Cell lysis: Cells were washed with pre-cooled PBS and lysed in pre-cooled lysis buffer (containing 1% protease and phosphatase inhibitor) for 30 min, and cells were vigorously vortexed several times during lysis. After lysis was completed, the cells were centrifuged at 11,000 g for 15 min at 4° C., and the supernatant was collected as whole cell protein.
Protein denaturation: protein concentration was measured by Bradford assay. Proteins were diluted using 4× Protein Sampling Buffer. Subsequently, the proteins were denatured by heating in a metal bath at 100° C. for 15 min.
Protein Immunoblotting Assay (Western Blotting, WB) was Performed to Quantify BRD4 Protein:
1) Protein electrophoresis: proteins were separated in 4-12% or 4-20% Bis-Tris SDS-PAGE gels. The appropriate volume of the above cell whole protein extract was added to the lanes of the above SDS-PAGE gel. Turn on the power and electrophoresis at 120 V for 15 minutes, then adjust the voltage to 180 V and continue electrophoresis until the loading buffer reaches the lowest end of the gel.
(2) Membrane transfer: After electrophoresis, remove the gel, cut a PVDF membrane […] of the appropriate size and activate the membrane with anhydrous methanol, and install the membrane transfer device in the following order from the negative pole to the positive pole: sponge cushion, gel, PVDF membrane, sponge cushion. After installing the membrane transfer device, place it in the corresponding membrane transfer tank, check the liquid level of the solution required for membrane transfer, turn on the power, and complete the membrane transfer after 3 transfer cycles.
3) Blocking: Place the membrane in QuickBlock™ Western Blocking Buffer and shake it for 20 minutes at room temperature.
4) Primary antibody incubation: After the blocking, discard the blocking solution, add the primary antibody diluted to the appropriate concentration, and gently shake the membrane overnight at 4° C. After completing the incubation, wash the membrane 4 times with 1×TBST for 5 min/time.
(5) Secondary antibody incubation: Add secondary antibody diluted to the appropriate concentration and gently shake the PVDF membrane for 1 hour at room temperature. After incubation, the membrane was washed 4 times with 1×TBST for 5 min/time.
6) Developing: Prepare the ECL developing solution before developing. Lay the PVDF membrane flat on a clean plastic wrap, add the developer solution to the membrane, and let it stand for 1 minute away from light. Subsequently, the PVDF membrane was imaged on a gel system.
Background: A western blot detects proteins with antibodies after separation by electrophoresis.

Assay [1] has as its system MCF-7 cells. The experiment in a line: Annexin V/PI double staining for apoptosis detection. It counts as cell-based. To be noted: FIG. 6. An excerpt:
The surface of normal cells consists of lipids distributed asymmetrically on the inner and outer leaflets of the plasma membrane. One of them, phosphatidylserine (PS), is normally distributed only on the inner leaflet of the plasma membrane, and is therefore exposed only to the cytoplasm. However, when cells undergo apoptosis, PS is exposed on the outer leaflets of the plasma membrane. Annexin V is a phospholipid-binding protein capable of binding to PS. Therefore, fluorescently labeled Annexin V can be used to detect PS exposed to the outer leaflets of early apoptotic cells. By co-staining with propidium iodide (PI), Annexin V-PI can distinguish normal living cells, early apoptotic cells, and late apoptotic cells. Cell treatment: MCF-7 cells in the logarithmic growth phase were taken for the experiment. Cells were inoculated in six-well plates at a density of 5.0×10^5 cells/per well and incubated at 37° C. for 24 hours. Cells were treated with Example PROTAC drug AS2 and PROTAC prodrug A1 for 3 h, followed by X-ray irradiation, and cells continued to be cultured until 48 h after completion of irradiation. Cell collection: Collect the culture medium in a 1.5 mL centrifuge tube for spare. […] After incubation for 15 min at room temperature away from light, fluorescence detection was carried out by flow cytometry.

Assay [2] deals with MCF-7 cells. Put plainly: In vitro anti-tumor effect, CellTiter 96 viability assay. It counts as cell-based. To be noted: Homo sapiens, MCF7, light or radiation study. On the procedure:
Experimental Procedure: MCF-7 cells in the logarithmic growth phase were used for the experiment. The cells were seeded at 5000 cells per well in 96-well plates and incubated for 24 hours at 37° C. The cells were treated with Example compounds A1-D3 for 3 h. Subsequently, the irradiated group was irradiated with 10-30 Gy of X-rays, and the cells were continued to be incubated until 72 h after completion of irradiation. At the end of drug treatment, 20 μL of CellTiter 96° solution was added to each well. The well plates were incubated in an incubator for 2-4 hours, and then the absorbance was measured using a plate reader. Data were analyzed with GraphPad Prism software to obtain the IC50 values of each test compound.

For another assay, the system named is MCF-7 cell line. The experiment in a line: In vivo anti-tumor activity, MCF-7 tumor model. Further details: species or system BALB/c nude mice. To be noted: 10 mg/kg subcutaneous injection. On the procedure: To investigate the in vivo activation and antitumor activity of the PROTAC compound AS2 and X-ray-responsive PROTAC compound A1, we performed in vivo antitumor activity studies. The MCF-7 cell line was selected, and experiments were performed in BALB/c nude mice. Experimental animals: BALB/c nude mice (female; 6-8 weeks old) were all purchased from Beijing Vital River Laboratory Animal Technology Co., Ltd and housed in pathogen-free conditions with standard temperature and humidity at the Laboratory Animal Resources Center of Tsinghua University. All animal experiments were approved by the Animal Ethics Committee of Tsinghua University. Tumor model establishment: MCF-7 cells in logarithmic growth phase were taken, and 0.25% trypsin was added to digest the cells after washing the cells for 3 times with pre-cooled PBS buffer. The digested cells were centrifuged at 1000 rpm/min for 5 min, the precipitate was discarded, and the cells were resuspended with pre-cooled PBS and carefully blown to make a single-cell solution. After the cells were counted by a counter, the cell density was adjusted to 1×10^7 cells/mL, and 10 mL was taken into a centrifuge tube and stored on ice. Before inoculation of cancer cells, nude mice were gently wiped under the skin of the right axilla with a paper towel sprayed with 75% alcohol. A 1 mL disposable syringe was used to aspirate 200 μL of cell suspension, and the air in the needle was removed, and a single subcutaneous injection was carried out by puncturing about 1 cm forward from the needle inlet site. The needle was withdrawn slowly to avoid fluid leakage. Observe the tumor growth status daily. Drug administration: When the tumor volume reached 120 mm^3, the tumor-bearing mice were randomly grouped. Six groups were set up, namely PBS, PROTAC drug AS2, PROTAC prodrug A1, PBS+X-ray irradiation, PROTAC drug AS2+X-ray irradiation, and PROTAC prodrug A1+X-ray irradiation. Each drug was dispersed in the following solution: 1.25% DMSO+20% PEG+5% Tween 80+73.75% dd H2O; administered dose: 10 mg/kg; subcutaneous injection. X-ray irradiation was performed 3 hours after drug injection. The irradiation dose was 5 Gy. Tumor size and body weight were monitored every other day. Tumor volume was calculated using the formula: tumor volume=length×width^2/2. After 16 days of monitoring, mice in each group were euthanized, and tumors and major organs were collected.

Structures are written as SMILES. Where two headings read alike, the source gives them in different places.

Turning to `Cc1ncsc1-c1ccc([C@H](C)NC(=O)[C@@H]2C[C@@H](OC(=O)OCc3c(F)c(F)c(N=[N+]=[N-])c(F)c3F)CN2C(=O)[C@H](NC(=O)COCCOCCOCCNC(=O)C[C@@H]2N=C(c3ccc(Cl)cc3)c3c(sc(C)c3C)-n3c(C)nnc32)C(C)(C)C)cc1` [Compound A1], the BRD4 degradation at BRD4 (co-treated with X-ray irradiation, 10 nM prodrug, FIG. 5) is given as above 50%. In addition, on BRD4 (co-treated with X-ray irradiation, FIG. 5), the “degradation activity on BRD4 with X-ray irradiation” value is on record as “significantly degraded”. In addition, at BRD4 (no irradiation, 0-300 nM, FIG. 4), the “degradation activity on BRD4 prior to activation” value is listed as “failed to degrade BRD4”. In addition, the “ability to induce apoptosis” value in the assay with MCF-7 cells [1] (X-rays and compound together, 48 h after irradiation) was “significantly elevated early apoptotic and late apoptotic cells”; in the assay on MCF-7 cells [1] (without X-ray irradiation) it was “comparable to that of control DMSO”. The IC50 in the assay with MCF-7 cells [2] (compound 3 h, then X-rays 10 Gy or 30 Gy, 72 h after irradiation, read-out: Irradiation with 10 Gy or 30 Gy IC50) came out at 122 nM; in the assay on MCF-7 cells [2] (no irradiation, 72 h incubation, read-out: Radiation-free IC50) it was 1020 nM. The “tumor growth (tumor volume)” value in the assay with MCF-7 cell line (X-ray 5 Gy 3 hours after drug injection) is “enhance the efficacy of radiation therapy”; with MCF-7 cell line (no irradiation, compared with PBS group), “failed to inhibit the tumor growth”.

By IC50 is commonly meant the midpoint of a concentration-inhibition curve.
